Test results as given in patent US6737383B1, “Herbicidal oxadiazolidines” (priority 1999, dated 2004).

Legend:
rape = test: Test B pre/postemergence rape; type: in vivo, Brassica napus
In short: (§1)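 Response is a visual 0-to-10 score relative to untreated plants, where 0 means no effect and 10 means complete control, taken twelve to sixteen days after application. Treatments went onto soil at planting and onto foliage of 1- to 4-leaf plants, using a surfactant-containing non-phytotoxic solvent.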

giant foxtail = test: Test B pre/postemergence giant foxtail; type: in vivo, Setaria faberii
In short: as §1

crabgrass = test: Test B pre/postemergence crabgrass; type: in vivo, Digitaria sanguinalis
In short: as §1

blackgrass = test: Test B pre/postemergence blackgrass; type: in vivo, Alopecurus myosuroides
In short: as §1

wild oat = test: Test B pre/postemergence wild oat; type: in vivo, Avena fatua
In short: as §1

smallflower flatsedge = test: Test B flood test smallflower flatsedge; type: in vivo, Cyperus difformis
In short: (§2)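 Plants were grown to the 2-leaf stage before treatment with test chemical, then held in a greenhouse for twelve to sixteen days. Injury was visually rated against untreated controls on a 0–10 scale, where 0 is no effect and 10 is complete control.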

bedstraw = test: Test B pre/postemergence bedstraw; type: in vivo, Galium aparine
In short: as §1

sugar beet = test: Test B pre/postemergence sugar beet; type: in vivo, Beta vulgaris
In short: as §1

purple nutsedge = test: Test B pre/postemergence purple nutsedge; type: in vivo, Cyperus rotundus
In short: as §1

rice = test: Test B flood test rice; type: in vivo, Oryza sativa
In short: as §2

bamyardgrass = test: Test B flood test barnyardgrass; type: in vivo, Echinochloa crus-galli
In short: as §2

velvetleaf = test: Test B pre/postemergence velvetleaf; type: in vivo, Abutilon theophrasti
In short: as §1

surinam grass = test: Test B pre/postemergence surinam grass; type: in vivo, Brachiaria decumbens
In short: as §1

corn = test: Test B pre/postemergence corn; type: in vivo, Zea mays
In short: as §1

duck salad = test: Test B flood test duck salad; type: in vivo, Heteranthera limosa
In short: as §2

wheat = test: Test B pre/postemergence wheat; type: in vivo, Triticum aestivum
In short: as §1

[1] = Preemergence, Rate 62 g/ha, scale of 0 to 10 where 0 is no effect and 10 is complete control
[2] = Preemergence, Rate 250 g/ha, scale of 0 to 10 where 0 is no effect and 10 is complete control
[3] = Preemergence, Rate 500 g/ha, scale of 0 to 10 where 0 is no effect and 10 is complete control
[4] = Rate 125 g/ha, Postemergence, scale of 0 to 10 where 0 is no effect and 10 is complete control
[5] = Rate 125 g/ha, Preemergence, scale of 0 to 10 where 0 is no effect and 10 is complete control
[6] = Rate 250 g/ha, Postemergence, scale of 0 to 10 where 0 is no effect and 10 is complete control
[7] = Rate 500 g/ha, Postemergence, scale 0 to 10, 0 no effect, 10 complete control
[8] = Rate 62 g/ha, Postemergence, scale of 0 to 10 where 0 is no effect and 10 is complete control
[9] = Rate 62 g/ha, headed Pre-emergence (flood test species), scale 0 to 10 (0 no effect, 10 complete control)
[10] = Rate 125 g/ha, Pre-emergence, flood test species, scale 0 to 10 where 0 is no effect and 10 is complete control
[11] = Rate 250 g/ha, Pre-emergence, flood-test species, scale 0 to 10, 0 is no effect, 10 is complete control
[12] = Rate 500 g/ha, Pre-emergence, flood test species, scale 0 to 10 (0 no effect, 10 complete control)

CC(C)N(C(=O)n1oc(=O)n(C2CCCC2)c1=O)c1ccc(F)cc1 [Compound 271]
1: Crabgrass plant response rating (crabgrass; [4]) | Plant response rating, Crabgrass (crabgrass; [6])
9: Blackgrass plant response rating (blackgrass; [5]) | Barnyardgrass plant response rating (bamyardgrass; [11]) | Barnyardgrass plant response rating (bamyardgrass; [12])
3: Rape plant response rating (rape; [4]) | Giant foxtail plant response rating (giant foxtail; [4]) | Crabgrass plant response rating (crabgrass; [1]) | Blackgrass plant response rating (blackgrass; [8]) | Wild oats plant response rating (wild oat; [7]) | Bedstraw plant response rating (bedstraw; [1]) | Barnyardgrass plant response rating (bamyardgrass; [10]) | Velvetleaf plant response rating (velvetleaf; [7]) | Plant response rating, Corn (corn; [3]) | Plant response rating, Wheat (wheat; [3])
2: Rape plant response rating (rape; [1]) | Wild oats plant response rating (wild oat; [1]) | Sugarbeets plant response rating (sugar beet; [4]) | Velvetleaf plant response rating (velvetleaf; [1]) | Plant response rating, B. signalgrass (surinam grass; [6])
6: Rape plant response rating (rape; [7]) | Wild oats plant response rating (wild oat; [2]) | Bedstraw plant response rating (bedstraw; [4]) | Sugarbeets plant response rating (sugar beet; [5]) | Sugarbeets plant response rating (sugar beet; [7])
8: Giant foxtail plant response rating (giant foxtail; [1]) | Plant response rating, Crabgrass (crabgrass; [3]) | Blackgrass plant response rating (blackgrass; [1]) | Plant response rating, Blackgrass (blackgrass; [6]) | Blackgrass plant response rating (blackgrass; [7]) | Plant response rating, Wild oats (wild oat; [3]) | Plant response rating, Bedstraw (bedstraw; [6]) | Bedstraw plant response rating (bedstraw; [7]) | Sugarbeets plant response rating (sugar beet; [2]) | Plant response rating, Sugarbeets (sugar beet; [3]) | Plant response rating, Velvetleaf (velvetleaf; [3]) | B. signalgrass plant response rating (surinam grass; [1]) | B. signalgrass plant response rating (surinam grass; [2]) | B. signalgrass plant response rating (surinam grass; [5])
7: Giant foxtail plant response rating (giant foxtail; [7]) | Crabgrass plant response rating (crabgrass; [2]) | Velvetleaf plant response rating (velvetleaf; [2])
10: Rape plant response rating (rape; [2]) | Plant response rating, Rape (rape; [3]) | Giant foxtail plant response rating (giant foxtail; [2]) | Plant response rating, Giant foxtail (giant foxtail; [3]) | Giant foxtail plant response rating (giant foxtail; [5]) | Blackgrass plant response rating (blackgrass; [2]) | Plant response rating, Blackgrass (blackgrass; [3]) | Bedstraw plant response rating (bedstraw; [2]) | Plant response rating, Bedstraw (bedstraw; [3]) | Bedstraw plant response rating (bedstraw; [5]) | Plant response rating, B. signalgrass (surinam grass; [3])
5: Crabgrass plant response rating (crabgrass; [5]) | Crabgrass plant response rating (crabgrass; [7]) | Sugarbeets plant response rating (sugar beet; [1]) | B. signalgrass plant response rating (surinam grass; [7])
4: Rape plant response rating (rape; [5]) | Plant response rating, Rape (rape; [6]) | Plant response rating, Giant foxtail (giant foxtail; [6]) | Blackgrass plant response rating (blackgrass; [4]) | Bedstraw plant response rating (bedstraw; [8]) | Plant response rating, Sugarbeets (sugar beet; [6]) | Barnyardgrass plant response rating (bamyardgrass; [9]) | Velvetleaf plant response rating (velvetleaf; [5])
0: Wild oats plant response rating (wild oat; [4]) | Plant response rating, Wild oats (wild oat; [6]) | S. Flatsedge plant response rating (smallflower flatsedge; [9]) | S. Flatsedge plant response rating (smallflower flatsedge; [10]) | S. Flatsedge plant response rating (smallflower flatsedge; [11]) | S. Flatsedge plant response rating (smallflower flatsedge; [12]) | Nutsedge plant response rating (purple nutsedge; [1]) | Nutsedge plant response rating (purple nutsedge; [2]) | Plant response rating, Nutsedge (purple nutsedge; [3]) | Nutsedge plant response rating (purple nutsedge; [4]) | Nutsedge plant response rating (purple nutsedge; [5]) | Plant response rating, Nutsedge (purple nutsedge; [6]) | Nutsedge plant response rating (purple nutsedge; [7]) | Rice plant response rating (rice; [9]) | Rice plant response rating (rice; [10]) | Rice plant response rating (rice; [11]) | Rice plant response rating (rice; [12]) | Velvetleaf plant response rating (velvetleaf; [4]) | Plant response rating, Velvetleaf (velvetleaf; [6]) | B. signalgrass plant response rating (surinam grass; [8]) | B. signalgrass plant response rating (surinam grass; [4]) | Corn plant response rating (corn; [1]) | Corn plant response rating (corn; [2]) | Corn plant response rating (corn; [8]) | Corn plant response rating (corn; [4]) | Corn plant response rating (corn; [5]) | Plant response rating, Corn (corn; [6]) | Corn plant response rating (corn; [7]) | Ducksalad plant response rating (duck salad; [9]) | Ducksalad plant response rating (duck salad; [10]) | Ducksalad plant response rating (duck salad; [11]) | Ducksalad plant response rating (duck salad; [12]) | Wheat plant response rating (wheat; [1]) | Wheat plant response rating (wheat; [2]) | Wheat plant response rating (wheat; [4]) | Wheat plant response rating (wheat; [5]) | Plant response rating, Wheat (wheat; [6]) | Wheat plant response rating (wheat; [7])
